# Source: PubChem BioAssay AID1918956 (Molecular Pharmacology Branch, DTP, NCI, 2023)
# Tested on: OVCAR-5 complex spheroids, viability
# Assay: Anticancer human tumor OVCAR-5 cell line growth inhibition;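 further: spheroids exposed to agents for seven days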;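 on viability, T/C: 100% = DMSO vehicle control wells viability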
# Conditions: for IC50: curve of first compound; for viability, T/C: stronger effect = lower value
# Excerpt: Multicellular complex tumor spheroid response to LSD1 Inhibitor Iadademstat in combination with a variety of drugs and investigational agents in selected tumor cell lines
# The current study was undertaken to assess response to LSD1 inhibitors in combination with standard-of-care drugs and investigational agents in solid tumor complex spheroid models as well as in the K-562 leukemia. Complex spheroids include a stromal component modeled by human endothelial cells (HUVEC) and fibroblasts modeled by human mesenchymal stem cells (MSCs). The concentration ranges selected for each drug and investigational agent were based upon clinically achievable concentrations if the clinical Cmax of the agent was known.
# Compounds. The drugs and investigational agents used in this study are listed on Table 1. All of the agents used, including staurosporine (NSC755774) and gemcitabine (NSC613327), were obtained from the Developmental Therapeutics Program, NCI. FDA-approved anticancer drugs are available from the NCI at http://dtp.nci.nih.gov/branches/dscb/oncology_drugset_explanation.html. Drugs and investigational agents were >95% pure by proton nuclear magnetic resonance (NMR) and liquid chromatography/mass spectrometry (LC/MS). Stock solutions were prepared at 400x in DMSO, stored at -70 degrees C, and diluted in fresh medium prior to their use. The final concentration of DMSO in cell culture wells never exceeded 0.25% (v/v). The FDA-approved anticancer drug set is available from the Developmental Therapeutics Program at https://dtp.cancer.gov/organization/dscb/obtaining/available_plates.htm. All drugs and investigational agents were tested over a range starting from a high concentration at or near the clinical Cmax and decreasing in half-log increments. If the clinical Cmax for an agent had not been determined, the highest concentration tested was 10 microM.
# Cell Lines. The patient-derived cancer cell (PDC) lines: 292921-168-R-J2-PDC, K24384-001-R-PDC, and 521955-158-R2-J5-PDC pancreatic carcinomas, 556581-035-R-J1 ovarian carcinoma, 324938-238-R-J1-PDC, 855422-203-R-J1-PDC and 883617-216-R-J1-PDC urothelial bladder carcinomas, 743489-274-T-PDC renal cell carcinoma, 138582-R-J1 Merkel cell tumor, K60290-347-R-J1 and K57222-313-R-J1-PDC glioblastomas, 653999-131-R-J2-PDC, LG0703-F948-PDC, and 349418-098-R-PDC non-small cell lung carcinomas, 885512-296-R-J2-PDC, 171881-019-R-J1-PDC breast carcinomas and 186277-243-T-J2-PDC and 233499-124-R-J2-PDC colon carcinomas were obtained from the NCI Patient-Derived Models Repository (PDMR, https://pdmr.cancer.gov). The established cell lines NCI/ADR-RES (RRID:CVCL_14520 and OVCAR-5 (RRID:CVCL_1628) ovarian carcinomas, 786-O (RRID:CVCL_1051) and A498 […] renal cell carcinoma, NCI-H211 (ATCC, cat. CRL-5824; RRID:CVCL_1529), NCI-H196 (ATCC, cat. CRL-5823, RRID:CVCL_1509), SW 1271 (ATCC, cat. CRL-2177, RRID:CVCL_1716) and NCI-H1876 (ATCC, cat. CRL-5902, RRID:CVCL_1503) small cell lung carcinomas, MDA-MB-231 (RRID:CVCL_0062) and MDA-MB-468 (RRID:CVCL_0419)breast carcinomas (10-12). Pooled donor human umbilical vein endothelial cells (HUVEC, Lonza, cat. CC-2519) and human mesenchymal stem cells (hMSC, Lonza, cat. PT-2501) were purchased from Lonza (Walkersville, MD).
# Cell Culture. All cells were maintained in an incubator at 37 degrees C and 5% CO2 with 95% humidity. The PDC lines were cultured according to standard operating procedures established by the NCI PDMR (https://pdmr.cancer.gov). Briefly all PDCs were thawed and cultured in Matrigel-coated flasks prepared with a working solution of 1X Ham's F-12 nutrient mix, without supplementation (Invitrogen, Waltham, MA, cat. 11765054), 100 U/mL penicillin-streptomycin (Invitrogen, cat. 15140122), and 2.5% Matrigel (Corning Inc., Corning, NY, cat. 354248) for the first three passages. […]
structure (smiles),measurement,setting,value
CC1(C)CCC(CN2CCN(c3ccc(C(=O)NS(=O)(=O)c4ccc(NCC5CCOCC5)c([N+](=O)[O-])c4)c(Oc4cnc5[nH]ccc5c4)c3)CC2)=C(c2ccc(Cl)cc2)C1 + NC1CCC(NC2CC2c2ccccc2)CC1,IC50,second compound 0.1 µM,7150 nM
same,IC50,second compound 0.316 µM,7060 nM
same,IC50,second compound 1 µM,6810 nM
same,IC50,second compound 3.16 µM,6300 nM
same,IC50,second compound 10 µM,5480 nM
same,"viability, T/C","second compound 0.1 µM, first compound 0.0316 µM",116%
same,"viability, T/C","second compound 0.1 µM, first compound 0.1 µM",97.5%
same,"viability, T/C","second compound 0.1 µM, first compound 0.316 µM",105%
same,"viability, T/C","second compound 0.1 µM, first compound 1 µM",98.9%
same,"viability, T/C","second compound 0.1 µM, first compound 3.16 µM",111%
same,"viability, T/C","second compound 0.1 µM, first compound 10 µM",27.1%
same,"viability, T/C","second compound 0.316 µM, first compound 0.0316 µM",108%
same,"viability, T/C","second compound 0.316 µM, first compound 0.1 µM",97.6%
same,"viability, T/C","second compound 0.316 µM, first compound 0.316 µM",98.4%
same,"viability, T/C","second compound 0.316 µM, first compound 1 µM",108%
same,"viability, T/C","second compound 0.316 µM, first compound 3.16 µM",111%
same,"viability, T/C","second compound 0.316 µM, first compound 10 µM",26.2%
same,"viability, T/C","second compound 1 µM, first compound 0.0316 µM",97.6%
same,"viability, T/C","second compound 1 µM, first compound 0.1 µM",91.5%
same,"viability, T/C","second compound 1 µM, first compound 0.316 µM",92.3%
same,"viability, T/C","second compound 1 µM, first compound 1 µM",101%
same,"viability, T/C","second compound 1 µM, first compound 3.16 µM",96.1%
same,"viability, T/C","second compound 1 µM, first compound 10 µM",27%
same,"viability, T/C","second compound 3.16 µM, first compound 0.0316 µM",99.9%
same,"viability, T/C","second compound 3.16 µM, first compound 0.1 µM",106%
same,"viability, T/C","second compound 3.16 µM, first compound 0.316 µM",105%
same,"viability, T/C","second compound 3.16 µM, first compound 1 µM",104%
same,"viability, T/C","second compound 3.16 µM, first compound 3.16 µM",88.8%
same,"viability, T/C","second compound 3.16 µM, first compound 10 µM",23.8%
same,"viability, T/C","second compound 10 µM, first compound 0.0316 µM",90.7%
same,"viability, T/C","second compound 10 µM, first compound 0.1 µM",93.3%
same,"viability, T/C","second compound 10 µM, first compound 0.316 µM",78.4%
same,"viability, T/C","second compound 10 µM, first compound 1 µM",91.7%
same,"viability, T/C","second compound 10 µM, first compound 3.16 µM",72.8%
same,"viability, T/C","second compound 10 µM, first compound 10 µM",24.9%
NS(=O)(=O)OCC1CC(n2ccc3c(NC4CCc5ccccc54)ncnc32)CC1O (stereo not given) + NC1CCC(NC2CC2c2ccccc2)CC1,IC50,second compound 0.1 µM,202 nM
same,IC50,second compound 0.316 µM,223 nM
same,IC50,second compound 1 µM,221 nM
same,IC50,second compound 3.16 µM,179 nM
same,IC50,second compound 10 µM,152 nM
same,"viability, T/C","second compound 0.1 µM, first compound 0.00949 µM",122%
same,"viability, T/C","second compound 0.1 µM, first compound 0.03 µM",118%
same,"viability, T/C","second compound 0.1 µM, first compound 0.0949 µM",76%
same,"viability, T/C","second compound 0.1 µM, first compound 0.3 µM",36.6%
same,"viability, T/C","second compound 0.1 µM, first compound 0.949 µM",16.2%
same,"viability, T/C","second compound 0.1 µM, first compound 3 µM",9.81%
same,"viability, T/C","second compound 0.316 µM, first compound 0.00949 µM",139%
same,"viability, T/C","second compound 0.316 µM, first compound 0.03 µM",126%
same,"viability, T/C","second compound 0.316 µM, first compound 0.0949 µM",84.8%
same,"viability, T/C","second compound 0.316 µM, first compound 0.3 µM",38.4%
same,"viability, T/C","second compound 0.316 µM, first compound 0.949 µM",15.5%
same,"viability, T/C","second compound 0.316 µM, first compound 3 µM",10.6%
same,"viability, T/C","second compound 1 µM, first compound 0.00949 µM",108%
same,"viability, T/C","second compound 1 µM, first compound 0.03 µM",98.6%
same,"viability, T/C","second compound 1 µM, first compound 0.0949 µM",80.8%
same,"viability, T/C","second compound 1 µM, first compound 0.3 µM",38.2%
same,"viability, T/C","second compound 1 µM, first compound 0.949 µM",17.9%
same,"viability, T/C","second compound 1 µM, first compound 3 µM",10.7%
same,"viability, T/C","second compound 3.16 µM, first compound 0.00949 µM",98.8%
same,"viability, T/C","second compound 3.16 µM, first compound 0.03 µM",105%
same,"viability, T/C","second compound 3.16 µM, first compound 0.0949 µM",69.2%
same,"viability, T/C","second compound 3.16 µM, first compound 0.3 µM",33.5%
same,"viability, T/C","second compound 3.16 µM, first compound 0.949 µM",16.4%
same,"viability, T/C","second compound 3.16 µM, first compound 3 µM",9.81%
same,"viability, T/C","second compound 10 µM, first compound 0.00949 µM",101%
same,"viability, T/C","second compound 10 µM, first compound 0.03 µM",79.3%
same,"viability, T/C","second compound 10 µM, first compound 0.0949 µM",64.7%
same,"viability, T/C","second compound 10 µM, first compound 0.3 µM",34%
same,"viability, T/C","second compound 10 µM, first compound 0.949 µM",14.3%
same,"viability, T/C","second compound 10 µM, first compound 3 µM",8.62%
